Publication PMC10327353 (Breast Cancer Research : BCR, 2023)

Assays:
[1] = In vivo CNS-PK study in rat; conditions: female, Wistar Han, brain and CSF (relative to unbound plasma/blood), single PO dose of DZD1516 30 mg/kg
Experimental: The ability of DZD1516 and DZ2678 to cross the BBB in female Wistar Han rat and female Cynomolgus monkey was studied by assessing the free brain-to-plasma ratio (Kp,uu,brain) and CSF-to-free plasma ratio (Kp,uu,CSF). Total brain-to-blood ratio (Kp,brain) and CSF-to-blood ratio (Kp,CSF) were measured from six time points after oral administration. Free fractions of DZD1516 and DZ2678 in the biological matrix were determined by in vitro plasma and brain binding assay.
Kp,brain= AUCbrain/AUCblood. Kp,CSF was the average of the CSF-to-blood ratios at the evaluated time points. Kp,uu,brain= Kp,brain× fu,brain/fu,blood; Kpuu,CSF= Kp,CSF/fu,blood.
In total, twenty-one female Wistar Han rats were administered with a single PO dose of DZD1516 at 30 mg/kg. The PO dosing formulation was a suspension in 0.5% HPMC E5 in water (w/v). Plasma, brain, and CSF samples were collected at 0.5, 1, 2, 4, 8, 24, and 30 hrs post-dose. The concentrations of DZD1516 and metabolite DZ2678 in plasma, brain, and CSF samples from the rats, as well as in plasma and CSF samples from the monkeys, were determined by the validated LC-MS/MS method.

[2] = system: HER2+ metastatic breast cancer; assay: Phase 1 study: antitumor activity (modified RECIST v1.1); assay type: in vivo, human
Experimental: (§1) Tumor imaging assessments were conducted every 6 weeks during the first 24 weeks (relative to C1D1) and every 9 weeks thereafter per investigator review according to modified RECIST v1.1 until progressive disease, starting a new anticancer therapy or withdrawal of informed consent (Additional file 1).
as §1, with “six” for “6”, “nine” for “9”, “anti-cancer” for “anticancer”, “consent. Patients who achieved an objective response had confirmatory scans at least four weeks apart.” for “consent (Additional file 1).”
The modified RECIST 1.1 used in this study includes both CNS assessment and extracranial assessment. A maximum of five measurable extracranial lesions, with a maximum of two lesions per organ, were selected in patients with extracranial disease. In addition, a maximum of five measurable intracranial lesions were selected in patients with intracranial disease. […] An overall response will be derived based on extracranial and intracranial response as described in the below table.

HER2 = HER2 (Homo sapiens, UniProt P04626); assay: In vitro HER2 enzymatic assay (Lance Ultra Kinase Assay); assay type: biochemical; parameters: purchased Thermo Fisher PR4918A; conditions: recombinant HER2, 2 mM ATP; read-out: IC50 against HER2 in the enzymatic assay
HER2, sequence (P04626 23-1255): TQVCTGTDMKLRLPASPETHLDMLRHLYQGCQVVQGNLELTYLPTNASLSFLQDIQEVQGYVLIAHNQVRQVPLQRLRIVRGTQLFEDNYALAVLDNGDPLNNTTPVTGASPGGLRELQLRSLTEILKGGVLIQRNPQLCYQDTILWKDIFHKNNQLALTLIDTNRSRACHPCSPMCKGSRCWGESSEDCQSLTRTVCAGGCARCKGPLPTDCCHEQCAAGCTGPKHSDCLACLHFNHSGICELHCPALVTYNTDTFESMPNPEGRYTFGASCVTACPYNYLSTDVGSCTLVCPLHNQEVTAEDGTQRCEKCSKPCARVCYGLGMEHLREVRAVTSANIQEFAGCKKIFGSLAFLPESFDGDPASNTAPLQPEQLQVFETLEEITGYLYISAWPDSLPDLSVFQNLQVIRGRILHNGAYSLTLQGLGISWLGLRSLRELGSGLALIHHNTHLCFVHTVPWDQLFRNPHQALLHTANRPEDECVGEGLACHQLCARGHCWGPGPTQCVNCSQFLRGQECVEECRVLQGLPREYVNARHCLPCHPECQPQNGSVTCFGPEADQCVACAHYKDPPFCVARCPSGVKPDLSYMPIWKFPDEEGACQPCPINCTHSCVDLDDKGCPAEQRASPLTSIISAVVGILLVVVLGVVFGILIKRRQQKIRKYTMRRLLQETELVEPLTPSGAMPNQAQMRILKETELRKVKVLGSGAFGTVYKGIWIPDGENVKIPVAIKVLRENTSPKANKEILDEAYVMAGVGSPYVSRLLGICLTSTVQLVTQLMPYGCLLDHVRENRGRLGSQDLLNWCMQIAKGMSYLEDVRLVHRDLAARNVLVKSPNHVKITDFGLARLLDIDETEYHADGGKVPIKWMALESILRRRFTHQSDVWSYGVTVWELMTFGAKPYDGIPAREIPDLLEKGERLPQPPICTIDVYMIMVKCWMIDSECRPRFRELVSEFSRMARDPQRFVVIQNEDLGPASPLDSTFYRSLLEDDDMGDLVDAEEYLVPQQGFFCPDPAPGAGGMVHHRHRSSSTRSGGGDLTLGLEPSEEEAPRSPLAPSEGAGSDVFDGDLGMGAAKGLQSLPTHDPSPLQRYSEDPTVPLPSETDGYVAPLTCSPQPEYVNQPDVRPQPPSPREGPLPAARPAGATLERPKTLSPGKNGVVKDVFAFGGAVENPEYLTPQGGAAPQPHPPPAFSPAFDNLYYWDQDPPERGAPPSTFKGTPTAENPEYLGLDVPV
Experimental: Recombinant HER2 was purchased from Thermo Fisher (Cat. # PR4918A). The inhibition potency of compounds against HER2 enzyme was assessed using Lance Ultra Kinase Assay.
In brief, recombinant kinases were pre-incubated in the presence or absence of the compound at room temperature for 30 minutes. The reaction was initiated by the addition of the ATP and substrate peptide. After 60 minutes of incubation, the reaction was stopped by the addition of the detection reagent mix containing EDTA. The fluorescence was measured at 615 nm and 665 nm, respectively, with excitation wavelength at 320 nm. The calculated signal ratio of 665 nm/615 nm is proportional to the kinase activity.

[3] = DMPK modeling prediction of human half-life
A431 cells = assay: Cell proliferation assay (CellTiter-Glo), A431; assay type: cell-based; conditions: Homo sapiens, A-431; A431, 72 hrs
Experimental: BT474C1-Luci Mono1 cells were seeded in 384-well plates at 1500 cells/well in DMEM medium containing 10% FBS and 1 mM Oxaloacetic acid (OAA). A431 cells were seeded in 384-well plates at 1,000 cells/well in DMEM medium containing 10% FBS. After overnight incubation, cells were treated with compounds at various concentrations for 3 days. Then cell viability was measured using a CellTiter-Glo Luminescent Cell Viability Assay from Promega Corp. according to the manufacturer's instructions.

P-gp (MDR1) = molecular target: T1, P-gp (MDR1) (Homo sapiens, UniProt P08183); assay: P-gp efflux ratio, bi-directional transport assay; assay type: in vitro ADME
T1 construct: expressed in transfected cells; host or cells: MDCKII-MDR1
T1 sequence (P08183 whole entry): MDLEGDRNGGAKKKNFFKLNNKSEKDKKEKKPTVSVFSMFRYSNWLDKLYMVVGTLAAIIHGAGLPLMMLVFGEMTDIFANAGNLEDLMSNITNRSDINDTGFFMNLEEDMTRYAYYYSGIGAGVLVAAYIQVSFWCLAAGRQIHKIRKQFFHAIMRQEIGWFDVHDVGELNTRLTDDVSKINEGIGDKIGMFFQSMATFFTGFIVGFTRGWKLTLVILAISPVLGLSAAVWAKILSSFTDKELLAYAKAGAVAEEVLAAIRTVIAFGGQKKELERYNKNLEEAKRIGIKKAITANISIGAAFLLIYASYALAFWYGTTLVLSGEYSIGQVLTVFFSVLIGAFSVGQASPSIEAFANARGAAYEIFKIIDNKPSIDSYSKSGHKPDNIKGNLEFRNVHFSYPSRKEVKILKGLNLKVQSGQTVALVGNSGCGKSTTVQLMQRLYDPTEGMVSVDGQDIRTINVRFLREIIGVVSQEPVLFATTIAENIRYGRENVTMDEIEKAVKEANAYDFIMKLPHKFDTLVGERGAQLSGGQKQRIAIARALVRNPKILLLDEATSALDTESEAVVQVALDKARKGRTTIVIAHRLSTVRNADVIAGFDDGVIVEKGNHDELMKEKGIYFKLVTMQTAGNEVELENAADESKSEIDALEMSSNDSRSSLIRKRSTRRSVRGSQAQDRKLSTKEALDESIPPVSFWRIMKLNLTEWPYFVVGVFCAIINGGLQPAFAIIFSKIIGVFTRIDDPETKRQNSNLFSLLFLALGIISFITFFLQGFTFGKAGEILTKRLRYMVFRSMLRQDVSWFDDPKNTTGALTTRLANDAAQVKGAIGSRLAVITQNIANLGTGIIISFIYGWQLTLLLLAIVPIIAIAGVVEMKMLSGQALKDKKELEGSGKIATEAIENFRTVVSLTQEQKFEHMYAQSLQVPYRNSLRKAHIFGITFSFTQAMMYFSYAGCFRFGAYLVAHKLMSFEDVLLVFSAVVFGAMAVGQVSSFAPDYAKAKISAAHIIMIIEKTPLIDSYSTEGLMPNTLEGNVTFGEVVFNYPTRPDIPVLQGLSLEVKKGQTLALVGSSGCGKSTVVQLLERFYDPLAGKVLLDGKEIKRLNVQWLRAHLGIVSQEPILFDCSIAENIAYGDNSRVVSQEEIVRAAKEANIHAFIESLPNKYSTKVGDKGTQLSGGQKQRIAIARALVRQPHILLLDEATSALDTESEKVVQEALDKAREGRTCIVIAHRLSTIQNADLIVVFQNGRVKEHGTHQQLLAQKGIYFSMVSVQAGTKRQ
Excerpt: Passive permeability (Papp) characterizes the rate across the cell membrane due to passive diffusion. A high permeability enables the rapid establishment of equilibrium among plasma, CSF, and brain compartments. Except for passive permeability, sufficient unbound drug concentration in the brain is governed by efflux transporters, including P-gp (MDR1, ABCB1) and BCRP, at BBB. Efflux ratio (ER) reflects the liability of a compound to be pumped out of the brain by BBB efflux transporters, which is indicated by the distribution disequilibrium between the plasma and the brain compartments.
[…] The adjusted efflux ratio was used to determine if DZD1516/DZ2678 underwent active efflux. Verapamil, a P-glycoprotein (P-gp) inhibitor, was used to identify if any active transport processes were mediated through P-gp. The apical-to-basolateral (A-B) and basolateral-to-apical (B-A) transport of DZD1516/DZ2678 in HBSS (25 mM HEPES, pH 7.4) with 0.1% BSA was measured across MDCKII-MDR1 cell monolayers in the absence and presence of the P-gp inhibitor, verapamil (100 μM). The apical-to-basolateral (A-B) and basolateral-to-apical (B-A) transport of DZD1516/DZ2678 in HBSS (25 mM HEPES, pH 7.4) with 0.1% BSA was also measured across MDCKII cell monolayers in the absence and presence of the P-gp inhibitor, verapamil. Incubations were performed at approximately 37°C for 120 min, with the functionality of the test system being confirmed using 5 μM digoxin as a positive control substrate. […] determined by quantifying substrate concentration in the incubation medium of the donor compartment at the beginning of the incubation period and both donor and receiver compartments at the end of the incubation period. The data was used to calculate the apparent permeability (Papp). All incubations were performed in triplicate, and the integrity of the cell monolayers was confirmed using the marker Lucifer yellow.

[4] = system: BT474C1-Luci Mono1 SC xenograft; assay: SC (subcutaneous) BT474C1-Luci Mono1 xenograft model; assay type: in vivo, nude mice
Experimental: Tumor cell suspension at 5 × 10^6 were injected subcutaneously in a total volume of 0.2 ml (1:1 with ECM Gel) into each mouse. 17β-ESTRADIOL (90-day release, 0.36 mg/pellet) were implanted 24 hrs before cells were injected subcutaneously. Tumor nodules were measured in two dimensions with caliper and the tumor volume was calculated using the following formula: tumor volume = (length × width^2) × 0.5. Tumor-bearing mice were randomized into different treatment groups when the mean tumor volume reached around 150 mm^3.

## COc1cc(O[C@H]2CCN(C)CC2(F)F)c2c(Nc3ccc(Oc4ccn5ncnc5c4)c(C)c3)ncnc2c1 [DZD1516]
[1]
  Kp uu: 0.57 to 0.87
[2]; MTD (250 mg), 3/5
  disease control rate: 60%
[2]; all dose levels
  patients who achieved stable disease: 6 out of 23
[2]; patients, median seven lines of prior systemic therapy
  best antitumor efficacy in intracranial, extracranial and overall lesions: stable disease
HER2
  IC50: 0.00056 µM
[3]
  predicted human half-life: about 8 h
A431 cells
  GI50: 8.87 µM
P-gp (MDR1); human, MDCK-MDR1, pH 7.4
  efflux ratio at 120 min, 1 µM: < 2
P-gp (MDR1); listed as Cpd-5
  Efflux ratio P-gp @1 µM: 1.6
[4]; 100 mg/kg or 150 mg/kg twice daily
  antitumor efficacy: tumor remission was achieved
[4]; monotherapy 50 mg/kg (data not shown)
  antitumor efficacy: tumor shrinkage or complete tumor remission
